According to US4946839A, “Azetidine derivatives, compositions and methods of treating” (priority 1987, dated 1990):

Experiments:
GC1 receptor [1] = assay: calcium influx stimulated by excitatory amino acids in primary cultures of cerebellar granule cells (GC1); type: cell-based, rat; details: for Calcium Influx % of stimulation by 10 μM GLU: 10 μM GLU (Table 2)
Protocol: (§1) Studies described hereinbelow on the usefulness of the compounds were performed on primary cultures of cerebellar granule cells prepared from 8-day old rats according to the procedures as set forth in Wroblewski et al., Neuropharmacology 24(9), 919-921 (1985). These cultures are characterized by the presence of four subtypes of excitatory amino acid receptors, classified on the basis of the coupling of their recognition sites to specific signal transduction systems, as well as according to the pharmacology of their recognition sites. The classification distinguishes between excitatory amino acid recognition sites coupled with PI hydrolysis (Gp) and those coupled with the activation of Ca^2+ (GC). This is disclosed in greater detail in Wroblewski et al. Proc. Natl. Acad. Sci. […], 5068-5072 (1987) GP1 and GC1 receptors are activated by glutamate, aspartate, N-methyl-D-aspartate (NMDA), antagonized by 2-amino-5-phosphonovalerate (APV), and inhibited by Mg^2+ . These two receptor subtypes correspond to the NMDA receptor, however, two distinct receptors must be postulated on the basis of their signal transducing mechanisms. The GP2 receptor is activated by glutamate and quisqualate, and is insensitive to Mg^2 + and APV. The GC2 receptor is activated by kainate and preferentially antagonized by cis-piperidine-2,3-dicarboxylate. The GC2 receptor is also insensitive to Mg^2+ inhibition. These two receptors correspond to the quisqualate and kainate receptors, respectively.
(§2) Cis-azetidine-2,4-dicarboxylic acid and derivatives selectively potentiate signal transduction at the GC1 and GP1 receptors. Referring to Table 1 the influx of calcium stimulated by NMDA, GLU, ASP and […] acting at the GC1 receptor is potentiated by cis-azetidine-2,4-dicarboxylic acid, while the action of KAIN at the GC2 receptor is not affected.

GP1 receptor = assay: PI hydrolysis stimulated by GLU in cerebellar granule cells; type: cell-based, rat; details: 20 μM GLU (Table 2); * = antagonistic activity
Protocol: as §1, §2

NMDA receptor subtype [2] = details: icv NMDA; cited from earlier work
GC1 receptor [3] = assay: inhibition of ASP-stimulated calcium influx by phencyclidine and its prevention; type: cell-based, rat
Protocol: as §1
(§3) Phencyclidine (PCP), once used as an anaesthetic, produces strong psychotropic effects manifested in humans by a state of sensory isolation, hallucinations and confusional states. It is one of the most widely abused drugs in the United States. One of the possible mechanisms of action of PCP involves the noncompetitive inhibition of the signal transduction at excitatory amino acid receptors, through allosteric interaction at a site distinct from the primary transmitter site (see Proc. Natl. Acad. Sci. USA discussed above).

binding site for PCP = assay: [^3 H]PCP radioligand binding; details: radioligand binding studies
Excerpt: as §3

NMDA receptor subtype [4] = assay: cGMP content in the cerebellum after icv injection of NMDA; type: in vivo, rat; set-up: cGMP: unit not given here
Protocol: The action of the NMDA receptor subtype can be estimated in vivo by measuring the changes in the content of cyclic GMP (cGMP) in the rat cerebellum after intracerebroventricular injections of NMDA. […] In terms of its pharmacology and of its mechanism of signal transduction the active receptor in the above conditions can be compared to the CC1 reporter measured in cultures of cerebellar granule cells.
In two series of experiments rats were injected icv with NMDA together with or without cis-azetidine-2,4-dicarboxylic acid.

GC2 receptor = assay: calcium influx stimulated by kainate at the GC2 receptor in cerebellar granule cells; type: cell-based, rat
Protocol: as §1, with “These two receptors correspond to the quisqualate and kainate receptors, respectively.” left out

GC1 receptor [5] = assay: calcium influx stimulated by GLU in the absence and presence of Az5; type: cell-based, rat
Protocol: as §1
Azxetidines increase the potency but not the efficacy of GLU action at the GC1 receptor. […] This indicates a 7-fold potentiation of the action of GLU.

COC(=O)[C@@H]1C[C@H](C(=O)OC(C)(C)C)N1 (relative stereo) [Az1, cis-azetidine-2,4-dicarboxylic acid t-butyl methyl ester]
Calcium Influx % of stimulation by 10 μM GLU (GC1 receptor [1]): 107%
% activity (potentiation of calcium influx) (GC1 receptor [1]; agonist Glu 10 μM (Table 3)): 107%
PI hydrolysis % of stimulation by 20 μM GLU (GP1 receptor): 117%

COC(=O)[C@H]1C[C@H](C(=O)OC(C)(C)C)N1 (relative stereo) [Az2, trans-azetidine-2,4-dicarboxylic acid-t-butyl methyl ester]
Calcium Influx % of stimulation by 10 μM GLU (GC1 receptor [1]): 104%

CC(C)(C)OC(=O)[C@H]1C[C@@H](C(=O)O)N1 (relative stereo) [Az3, cis-azetidine-2,4-dicarboxylic acid mono-t-butyl ester]
Calcium Influx % of stimulation by 10 μM GLU (GC1 receptor [1]): 141%
% activity (potentiation of calcium influx) (GC1 receptor [1]; agonist Glu 10 μM (Table 3)): 141%
% activity (potentiation of calcium influx) (GC1 receptor [1]; agonist Glu 20 μM (Table 3)): 136%
PI hydrolysis % of stimulation by 20 μM GLU (GP1 receptor): 125%

CC(C)(C)OC(=O)[C@H]1C[C@H](C(=O)O)N1 (relative stereo) [Az4, trans-azetidine-2,4-dicarboxylic acid mono-t-butyl ester]
Calcium Influx % of stimulation by 10 μM GLU (GC1 receptor [1]): 100%
PI hydrolysis % of stimulation by 20 μM GLU (GP1 receptor): 109%

O=C(O)[C@H]1C[C@H](C(=O)O)N1 (relative stereo) [Az6, trans-azetidine-2,4-dicarboxylic acid]
Calcium Influx % of stimulation by 10 μM GLU (GC1 receptor [1]): 103%
PI hydrolysis % of stimulation by 20 μM GLU (GP1 receptor): 83%

NC(=O)[C@@H]1C[C@H](C(=O)O)N1 (relative stereo) [Az8, cis-4-carbamoylazetidine-2-carboxylic acid]
% activity (potentiation of calcium influx) (GC1 receptor [1]; agonist Asp 20 μM (Table 3)): 150%

COC(=O)[C@H]1C[C@@H](C(=O)O)N1 (relative stereo) [Az11, cis-azetidine-2,4-dicarboxylic acid methyl ester]
% activity (potentiation of calcium influx) (GC1 receptor [1]; agonist Glu 10 μM (Table 3)): 122%

O=C(O)[C@H]1C[C@@H](CO)N1 (relative stereo) [Az13, cis-4-(hydroxymethyl)azetidine-2-carboxylic acid]
% activity (potentiation of calcium influx) (GC1 receptor [1]; agonist Asp 10 μM (Table 3)): 159%

NC(CCCP(=O)(O)O)C(=O)O (centres unmarked) [APV, 2-amino-5-phosphonovaleric acid]
effect on increases in cGMP content induced by NMDA (NMDA receptor subtype [2]): antagonized

N[C@@H](CC(=O)O)C(=O)O [ASP, Aspartate, reference compound]
ASP-stimulated calcium influx (GC1 receptor [3]; ASP 50 μM, no PCP): 31.3 ± 3.4 nmol ^45 Ca^2+ /mg protein

O=C(O)[C@@H]1C[C@H](C(=O)O)N1 [Az5, cis-azetidine-2,4-dicarboxylic acid]
displacement of specific [^3 H]PCP binding (binding site for PCP): failed to displace the specific binding of [^3 H]PCP
cGMP (NMDA receptor subtype [4]; 5 min, Az5 2 μg): 6.8 ± 0.8
cGMP % Control (NMDA receptor subtype [4]; 5 min, Az5 2 μg): 142 % Control
cGMP (NMDA receptor subtype [4]; 5 min, NMDA + Az5 together): 16.1 + 2.9
cGMP % Control (NMDA receptor subtype [4]; 5 min, NMDA + Az5 together): 334 % Control
cGMP (NMDA receptor subtype [4]; 10 min, Az5 10 μg): 14.9 ± 1.3
cGMP % Control (NMDA receptor subtype [4]; 10 min, Az5 10 μg): 192 % Control
cGMP (NMDA receptor subtype [4]; 10 min, NMDA + Az5 together): 16.5 + 2.8
cGMP % Control (NMDA receptor subtype [4]; 10 min, NMDA + Az5 together): 211 % Control
effect on action of endogenous receptor agonist and injected NMDA (NMDA receptor subtype [4]; both series): potentiated the action of the endogenous receptor agonist as well as the action of injected NMDA
Calcium Influx % of stimulation by 10 μM GLU (GC1 receptor [1]): 207%
effect on calcium influx stimulated by NMDA, GLU, ASP and QUIS (GC1 receptor [1]; GC1 receptor): potentiated
% activity (potentiation of calcium influx) (GC1 receptor [1]; agonist Asp 10 μM (Table 3)): 196%
% activity (potentiation of calcium influx) (GC1 receptor [1]; agonist Asp 20 μM (Table 3)): 141%
Percent Activity (potentiation of calcium influx) (GC1 receptor [1]; agonist Aspartate (ASP) 20 μM): 144%
% activity (potentiation of calcium influx) (GC1 receptor [1]; agonist Glu 10 μM (Table 3)): 207%
% activity (potentiation of calcium influx) (GC1 receptor [1]; agonist Glu 20 μM (Table 3)): 157%
Percent Activity (potentiation of calcium influx) (GC1 receptor [1]; agonist Glutamate (GLU) 20 μM): 169%
Percent Activity (potentiation of calcium influx) (GC1 receptor [1]; agonist NMDA 20 μM): 188%
Percent Activity (potentiation of calcium influx) (GC1 receptor [1]; agonist Quisqualate (QUIS) 20 μM): 124%
effect on the action of KAIN (GC2 receptor; GC2 receptor): not affected
Percent Activity (potentiation of calcium influx) (GC2 receptor; agonist Kainate 20 μM): 104%
potentiation of the action of GLU (GC1 receptor [5]; 50 μM Az5, from EC50 of GLU): 7 fold
ASP-stimulated calcium influx (GC1 receptor [3]; ASP 50 μM + Az5 50 μM, PCP 20 nM): 57.2 ± 3.2 nmol ^45 Ca^2+ /mg protein
ASP-stimulated calcium influx (GC1 receptor [3]; ASP 50 μM + Az5 50 μM, PCP 50 nM): 32.2 ± 1.3 nmol ^45 Ca^2+ /mg protein
ASP-stimulated calcium influx (GC1 receptor [3]; ASP 50 μM + Az5 50 μM, PCP 100 nM): 13.3 ± 0.3 nmol ^45 Ca^2+ /mg protein
ASP-stimulated calcium influx (GC1 receptor [3]; ASP 50 μM + Az5 50 μM, no PCP): 64.5 ± 2.6 nmol ^45 Ca^2+ /mg protein
action of PCP on ASP-stimulated signal transduction (GC1 receptor [3]; with PCP): exhibits the ability to decrease the action of PCP on ASP-stimulated signal transduction
PI hydrolysis % of stimulation by 20 μM GLU (GP1 receptor): 124%

COC(=O)[C@@H]1C[C@H](C(=O)OC)N1 [Az7, cis-azetidine-2,4-dicarboxylic acid dimethyl ester]
% activity (potentiation of calcium influx) (GC1 receptor [1]; agonist Glu 50 μM (Table 3)): 68%

NC(=O)[C@@H]1C[C@H](C(N)=O)N1 [Az9, cis-azetidine-2,4-dicarboxamide]
% activity (potentiation of calcium influx) (GC1 receptor [1]; agonist Asp 20 μM (Table 3)): 106%

O=C(O)[C@H]1C[C@@H](C(=O)O)N1Cc1ccccc1 [Az10, cis-N-benzylazetidine-2,4-dicarboxylic acid]
% activity (potentiation of calcium influx) (GC1 receptor [1]; agonist Asp 10 μM (Table 3)): 121%

O=C(O)[C@@H]1CCN1 [Az12, L-2-azetidinecarboxylic acid, reference compound]
% activity (potentiation of calcium influx) (GC1 receptor [1]; agonist Glu 20 μM (Table 3)): 110%

N[C@@H](CCC(=O)O)C(=O)O [GLU, Glutamate]
EC50 (GC1 receptor [5]; in the absence of Az5): 51 µM
EC50 (GC1 receptor [5]; in the presence of 50 μM Az5): 7 µM

CN[C@H](CC(=O)O)C(=O)O [NMDA, N-methyl-D-aspartate, reference compound]
cGMP (NMDA receptor subtype [4]; 5 min, NMDA 2 μg): 5.6 ± 0.8
cGMP % Control (NMDA receptor subtype [4]; 5 min, NMDA 2 μg): 136 % Control
cGMP (NMDA receptor subtype [4]; 10 min, NMDA 1 μg): 10.5 ± 2.3
cGMP % Control (NMDA receptor subtype [4]; 10 min, NMDA 1 μg): 135 % Control

c1ccc(C2(N3CCCCC3)CCCCC2)cc1 [PCP, phencyclidine, reference compound]
ASP-stimulated calcium influx (GC1 receptor [3]; ASP 50 μM, PCP 20 nM): 23.0 ± 1.7 nmol ^45 Ca^2+ /mg protein
ASP-stimulated calcium influx (GC1 receptor [3]; ASP 50 μM, PCP 50 nM): 9.2 ± 0.5 nmol ^45 Ca^2+ /mg protein
ASP-stimulated calcium influx (GC1 receptor [3]; ASP 50 μM, PCP 100 nM): 0.7 ± 0.1 nmol ^45 Ca^2+ /mg protein
